Assay results as given in patent publication US8933295B2, “Identifying agents to treat alzheimer's disease-related decreased sorting behavior by administration to a triple transgenic mouse expressing mutant forms of APP, presenilin or tau” (Janssen Biotech, Inc., priority 2008, dated 2015).
“Also recorded” adds a separate entry of the source.

System: 3×Tg-AD mice
Test: Sorting Activity Test (SAT), bedding sorting score, tricyclic antidepressants
Type: in vivo, mouse
Details: for mean sorting score over the course of the study: 6 cages x 7 weeks; for mean sorting score over the course of the study / mean sorting score: score 0-4; for mean sorting score: day 7 after bedding change, 6 cages, dosed once daily Mon-Fri
Excerpt: The 3×Tg-AD mice developed by LaFerla et al., at the University of California at Irvine (Neuron 2003b) were used in the study. These mice harbor mutations in three different genes: the β-amyloid precursor protein (APPSweKM→NL), presenilin-1 (PS1M146V) and tau (P301L). […] Intracellular A-beta peptide immunoreactivity has been reported to appear by as early as three months of age and extracellular A-beta deposits in evidence between six and 12 months of age (Oddo et al., 2003a, 2003b). In the cohort of mice used in the present studies, these hallmarks of AD were not observed until 19 months of age by immunohistochemical methods.
Triple transgenic (3×Tg-AD) mice and corresponding non-transgenic control mice were weaned and group housed four (4) mice per cage in large static microisolator caging composed of a tinted polycarbonate cage, stainless steel lid, and polycarbonate filtered top at Ace Animals, Inc. Mice were fed 5% Fat Purina Autoclavable Breeder Diet (Item #RHI5R24CGP) and provided reverse osmosis chlorinated water ad libitum within a barrier environment in an environmentally controlled facility (22° C., 40-60% relative humidity) with a 12:12-hour light: dark cycle. Health status reports certify that all animals were free of known viral, bacterial, and parasitic pathogens.
The unique factor within this colony was the use of a combination corncob and papered bedding (AlphaCobb® cat #ALPHA4B, Animal Specialties and Provisions, Quakertown, Pa.). The mice were 8 weeks of age at the start of the study.
Mice were housed 2 per cage, 6 cages per group: Non-transgenic control, untreated, 3×Tg-AD, untreated, 3×Tg-AD, Desipramine, 30 mg/kg, and 3×Tg-AD, Imipramine. All mice were approximately two months of age at the start of the study. Mice were dosed once daily, Monday through Friday with test article. Cages were photographed weekly on Day 7, and cage bedding was changed once per week after photographs were taken.
In order to quantify the sorting behavior of the mice in this study, a scoring system was devised. Before the start of the initial study the mice were observed. It was evident that the sorting behavior was not an “all or nothing” phenomenon, but rather existed in degrees. After observing the cages for some time, scoring criteria were established.
In these cages, the two types of bedding were equally mixed throughout the cage. There was no area where one bedding type was more concentrated.
In these cages, a small area of white bedding was seen, usually piled in a corner. The two types of bedding were equally mixed throughout the rest of the cage.
A score of 2 was given to cages when the white area of bedding was more pronounced, yet the bedding throughout the rest of the cage was still mixed.
A score of 3 was given to cages when the white area was very clearly defined, and very little white bedding was left mixed with the Alpha Cobb.
A score of 4 was given to cages when the two types of bedding were almost completely separated from each other.
The degree of sorting at the end of each 7 day period (before the cages were changed) was scored using this system.
Using the scoring system devised and making daily observations of the cages, the behavior patterns of the non-transgenic control mice could be clearly distinguished from the 3×Tg-AD mice within a matter of a couple days, but was most prominent after Day 3. At Day 7 before each bedding change, the bedding of each cage was digitally photographed and scored. Table 1 provides the mean score and standard deviation (SD) for each group of mice for each week observed.
Data was analyzed using GraphPad Prism software with ANOVA one-way analysis of variance followed by Dunnett's multiple comparison test. All groups (6 cages×7 weeks) were compared to untreated 3×TgAD group. Significance was defined as p<0.05.

Compound | mean sorting score over the course of the study | mean sorting score (week 1) | mean sorting score (week 2) | mean sorting score (week 3) | mean sorting score (week 4) | mean sorting score (week 5) | mean sorting score (week 6) | mean sorting score (week 7) | sorting behavior, in words (treated 3×Tg-AD mice compared to untreated Tg mice)
CN(C)CCCN1c2ccccc2CCc2ccccc21 [IMIPRAMINE, Imipramine] | 0.31 | 0.00 | 0.67 | 0.17 | 0.33 | 0.33 | 0.33 | 0.33 | –
CNCCCN1c2ccccc2CCc2ccccc21 [DESIPRAMINE, Desipramine] | 0.67 | 0.00 | 0.50 | 1.17 | 0.83 | 0.83 | 0.50 | 0.83 | regained some of the behavior; also recorded: greater effect than imipramine
